# Reference: patent US20090306133A1, “New Acetyl Coenzyme A Carboxylase (ACC) Inhibitors And Uses In Treatments Of Obesity And Diabetes Mellitus - 087” (ASTRAZENECA AB, priority 2007, published 2009)
# Key:
# [1] = target: Human recombinant Acetyl-CoA Carboxylase 1 (ACC1) (Homo sapiens, UniProt Q13085); test: Assay X: ACC1 inhibition, inorganic phosphate (malachite green); assay type: biochemical; conditions: Assay X: 37° C., 1.5 h, 5 min pre-incubation
# Protocol: (§1) Human recombinant Acetyl-CoA Carboxylase 1 and Acetyl-CoA Carboxylase 2 (ACC1 and ACC2) were assayed by determining the amount of inorganic phosphate (Pi) generated. Pre-incubation of 15 μL enzyme together with 0.75 μL DMSO+/−compound for 5 min was done before the reaction was initiated by the addition of 10 μL substrate. […] After 1.5 h the reaction was stopped by addition of 74 μL of water followed by extensive mixing, split and transfer of 2×40 μL to a read-plate encompassing 30 μL distilled H2O per well (n=2→n=4). Colour reaction was initiated by addition of 30 μL malachite green reagent per well and allowed 15 min before absorbance reading of the plates at 660 nm. The malachite green reagent was prepared by mixing 16.4 mL ammonium molybdate solution (7.5%), 1.64 mL Tween (11%) with 82 mL Malachite Green/H2SO4-solution (0.7 g Malachite Green to 1000 mL of 10% (v/v) H2SO4).
# (§2) All compounds were tested in triplicate at 10 different concentrations. Control compound (0, 50 and 100% effect) was included on each plate. […] Curve fitting was done using the following equation: y=(A+((B−A)/(1+((x/C)̂D)))) where A and B represents the curve bottom (% inhibition) and the total amplitude (% inhibition), respectively, whereas C and D are the apparent IC50 and curve slope, respectively.
# [2] = target: Human recombinant Acetyl-CoA Carboxylase 2 (ACC2) (Homo sapiens, UniProt O00763); test: Assay X: ACC2 inhibition, inorganic phosphate (malachite green); assay type: biochemical; conditions: Assay X: 37° C., 1.5 h, 5 min pre-incubation
# Chain of Human recombinant Acetyl-CoA Carboxylase 2 (ACC2) (O00763 whole entry): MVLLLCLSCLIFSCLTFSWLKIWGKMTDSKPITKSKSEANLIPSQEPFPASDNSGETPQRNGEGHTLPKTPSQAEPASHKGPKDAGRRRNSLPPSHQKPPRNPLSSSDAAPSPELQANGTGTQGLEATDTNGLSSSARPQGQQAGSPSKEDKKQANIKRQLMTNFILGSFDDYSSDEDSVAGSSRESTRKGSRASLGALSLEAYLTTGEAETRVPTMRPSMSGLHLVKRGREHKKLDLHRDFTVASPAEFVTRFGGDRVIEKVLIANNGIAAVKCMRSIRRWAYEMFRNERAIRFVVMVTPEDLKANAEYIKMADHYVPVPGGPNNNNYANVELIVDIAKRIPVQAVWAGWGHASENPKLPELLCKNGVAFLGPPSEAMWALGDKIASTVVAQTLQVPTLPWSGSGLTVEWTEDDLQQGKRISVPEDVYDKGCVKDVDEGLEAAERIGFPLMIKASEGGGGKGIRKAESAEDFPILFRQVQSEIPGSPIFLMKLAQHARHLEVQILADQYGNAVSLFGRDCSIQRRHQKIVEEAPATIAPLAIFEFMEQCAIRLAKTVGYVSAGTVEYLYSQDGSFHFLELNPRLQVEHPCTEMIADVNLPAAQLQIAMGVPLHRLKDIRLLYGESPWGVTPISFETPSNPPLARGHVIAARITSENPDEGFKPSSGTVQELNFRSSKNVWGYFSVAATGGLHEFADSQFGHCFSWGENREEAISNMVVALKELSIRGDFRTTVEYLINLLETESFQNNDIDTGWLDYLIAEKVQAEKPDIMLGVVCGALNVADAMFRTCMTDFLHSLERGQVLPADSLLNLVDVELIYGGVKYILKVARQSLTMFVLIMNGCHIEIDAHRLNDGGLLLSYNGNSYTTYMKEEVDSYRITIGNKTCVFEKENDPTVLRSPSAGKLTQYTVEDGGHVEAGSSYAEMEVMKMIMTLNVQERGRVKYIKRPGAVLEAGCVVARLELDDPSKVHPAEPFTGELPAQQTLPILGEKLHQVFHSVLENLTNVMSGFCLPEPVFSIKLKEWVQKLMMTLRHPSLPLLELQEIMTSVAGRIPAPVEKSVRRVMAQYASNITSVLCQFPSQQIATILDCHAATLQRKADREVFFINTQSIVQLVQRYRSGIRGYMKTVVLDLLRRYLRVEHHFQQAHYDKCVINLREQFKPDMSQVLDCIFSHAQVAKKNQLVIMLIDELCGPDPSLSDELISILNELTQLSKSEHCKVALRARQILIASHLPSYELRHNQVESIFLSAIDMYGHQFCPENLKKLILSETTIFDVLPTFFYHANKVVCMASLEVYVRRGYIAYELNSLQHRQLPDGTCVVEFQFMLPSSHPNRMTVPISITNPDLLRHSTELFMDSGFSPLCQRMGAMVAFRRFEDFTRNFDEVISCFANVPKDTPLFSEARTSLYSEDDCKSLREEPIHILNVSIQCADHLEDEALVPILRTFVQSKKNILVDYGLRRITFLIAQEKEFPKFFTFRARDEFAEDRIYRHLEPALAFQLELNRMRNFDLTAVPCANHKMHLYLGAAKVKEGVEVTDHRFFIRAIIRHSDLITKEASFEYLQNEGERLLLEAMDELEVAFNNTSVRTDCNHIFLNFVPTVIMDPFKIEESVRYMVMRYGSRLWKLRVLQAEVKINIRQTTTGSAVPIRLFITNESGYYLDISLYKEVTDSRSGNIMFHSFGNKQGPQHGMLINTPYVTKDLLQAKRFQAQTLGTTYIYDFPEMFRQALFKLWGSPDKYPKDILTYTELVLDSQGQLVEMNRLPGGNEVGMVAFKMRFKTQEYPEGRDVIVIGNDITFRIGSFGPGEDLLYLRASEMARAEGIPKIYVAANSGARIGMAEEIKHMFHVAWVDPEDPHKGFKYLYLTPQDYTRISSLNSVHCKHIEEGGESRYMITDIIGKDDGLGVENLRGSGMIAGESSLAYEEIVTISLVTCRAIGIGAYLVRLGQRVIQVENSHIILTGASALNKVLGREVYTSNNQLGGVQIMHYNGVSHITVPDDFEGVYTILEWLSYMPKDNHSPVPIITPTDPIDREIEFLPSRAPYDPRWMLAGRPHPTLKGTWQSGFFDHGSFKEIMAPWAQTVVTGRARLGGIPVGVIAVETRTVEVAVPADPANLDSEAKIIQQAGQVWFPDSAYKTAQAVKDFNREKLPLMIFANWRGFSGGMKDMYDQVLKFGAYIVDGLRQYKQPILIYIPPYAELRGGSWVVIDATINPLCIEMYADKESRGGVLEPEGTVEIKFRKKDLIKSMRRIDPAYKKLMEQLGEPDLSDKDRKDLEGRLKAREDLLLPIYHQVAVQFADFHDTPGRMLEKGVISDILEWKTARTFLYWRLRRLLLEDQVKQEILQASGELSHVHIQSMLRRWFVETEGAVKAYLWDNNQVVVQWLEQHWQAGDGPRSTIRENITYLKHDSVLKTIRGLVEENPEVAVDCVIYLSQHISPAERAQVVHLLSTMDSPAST
# Protocol: as §1, §2
Compound,IC50 [1] [nM],IC50 [2] [nM]
"CC(C)(C)OC(=O)NC[C@H]1CC[C@H](CNC(=O)c2cc(N3CCNCC3)nc3ccccc23)CC1 [Example 190, tert-Butyl {[trans-4-({[(2-piperazin-1-ylquinolin-4-yl)carbonyl]amino}methyl)-cyclohexyl]methyl}carbamate]",13600,1300
"CN1CCN(c2ccc(-c3cc(C(=O)NC[C@H]4CC[C@H](CNC(=O)OCC5CCCO5)CC4)c4ccccc4n3)cn2)CC1 (stereo partly drawn) [Example 127, Tetrahydrofuran-2-ylmethyl[(trans-4-{[({2-[6-(4-methylpiperazin-1-yl)pyridin-3-yl]quinolin-4-yl}carbonyl)amino]methyl}cyclohexyl)methyl]carbamate]",3780,880
"CN1CCN(c2ccc(-c3cc(C(=O)NC[C@H]4CC[C@H](CNC(=O)OCCC#N)CC4)c4ccccc4n3)cn2)CC1 [Example 132, 2-Cyanoethyl[(trans-4-{[({2-[6-(4-methylpiperazin-1-yl)pyridin-3-yl]quinolin-4-yl}carbonyl)amino]methyl}cyclohexyl)methyl]carbamate]",5760,1860
"CC(=O)NCCOC(=O)NC[C@H]1CC[C@H](CNC(=O)c2cc(-c3ccc(N4CCN(C)CC4)nc3)nc3ccccc23)CC1 [Example 122, 2-Acetamidoethyl[(trans-4-{[({2-[6-(4-methylpiperazin-1-yl)pyridin-3-yl]quinolin-4-yl}carbonyl)amino]methyl}cyclohexyl)methyl]carbamate]",8130,1860
"CN1CCN(c2ccc(-c3cc(C(=O)NC[C@H]4CC[C@H](CNC(=O)OCc5cnccn5)CC4)c4ccccc4n3)cn2)CC1 [Example 131, Pyrazin-2-ylmethyl-[(trans-4-{[({2-[6-(4-methylpiperazin-1-yl)pyridin-3-yl]quinolin-4-yl}carbonyl)amino]methyl}cyclohexyl)methyl]carbamate]",5250,1590
"CC(=O)NCCC1CCN(c2cc(C(=O)NC[C@H]3CC[C@H](CNC(=O)OC(C)(C)C)CC3)c3ccccc3n2)CC1 [Example 192, tert-Butyl [(trans-4-{[({2-[4-(2-acetamidoethyl)piperidin-1-yl]quinolin-4-yl}carbonyl)amino]methyl}cyclohexyl)methyl]carbamate]",1960,560
"CC(C)(C)OC(=O)NC[C@H]1CC[C@H](CNC(=O)c2cc(-c3ccc(OC4CCOCC4)nc3)nc3ccccc23)CC1 [Example 175, tert-Butyl[(trans-4-{[({2-[6-(tetrahydro-2H-pyran-4-yloxy)-pyridin-3-yl]-quinolin-4-yl}-carbonyl)amino]-methyl}cyclohexyl)methyl]carbamate]",7300,500
"CN(CCF)CCC1CCN(c2cc(C(=O)NC[C@H]3CC[C@H](CNC(=O)OC(C)(C)C)CC3)c3ccccc3n2)CC1 [Example 245, tert-Butyl ({trans-4-[({[2-(4-(2-((2-fluoroethyl)(methyl)amino)ethyl}piperidin-1-yl)quinolin-4-yl]carbonyl}amino)methyl]cyclohexyl}methyl)carbamate]",1400,180
"CN1CCC(COc2cc(C(=O)NC[C@H]3CC[C@H](CNC(=O)OC(C)(C)C)CC3)c3ccccc3n2)CC1 [Example 216, tert-Butyl [(trans-4-{[({2-[(1-methylpiperidin-4-yl)methoxy]quinolin-4-yl}carbonyl)amino]methyl}cyclohexyl)methyl]-carbamate]",3550,720
"CC(C)(C)OC(=O)NC[C@H]1CC[C@H](CNC(=O)c2cc(-c3ccc(OCN4CCCC4=O)nc3)nc3ccccc23)CC1 [Example 177, tert-Butyl{[trans-4-({[(2-{6-[(2-oxopyrrolidin-1-yl)methoxy]pyridin-3-yl}quinolin-4-yl)carbonyl]amino}-methyl)cyclohexyl]-methyl}carbamate]",4310,1710
"CC(C)(C)OC(=O)NC[C@H]1CC[C@H](CNC(=O)c2cc(-c3ccc(N4CNC(=O)C4)nc3)nc3ccccc23)CC1 [Example 172, tert-Butyl[(trans-4-{[({2-[6-(4-oxoimidazolidin-1-yl)-pyridin-3-yl]quinolin-4-yl}carbonyl)amino]-methyl}cyclohexyl)-methyl]carbamate]",3500,160

# Continued, values first:
IC50 [1] [nM],IC50 [2] [nM],Compound
1090,140,"CN(C)CC(F)CC1CCN(c2cc(C(=O)NC[C@H]3CC[C@H](CNC(=O)OC(C)(C)C)CC3)c3ccccc3n2)CC1 (stereo partly drawn) [Example 237, tert-Butyl {[trans-4-({[(2-{4-[3-(dimethylamino)-2-fluoropropyl]piperidin-1-yl}quinolin-4-yl)carbonyl]amino}methyl)cyclohexyl]methyl}carbamate]"
1330,160,"CC(C)(C)OC(=O)NC[C@H]1CC[C@H](CNC(=O)c2cc(N3CCC(CCN4CCC(O)C4)CC3)nc3ccccc23)CC1 (relative stereo) [Example 230, tert-Butyl{[trans-4-({[(2-{4-[2-(3-hydroxypyrrolidin-1-yl)ethyl]piperidin-1-yl}quinolin-4-yl)carbonyl]amino}-methyl)cyclohexyl]-methyl}carbamate]"
630,150,"CN(C)CCOc1ccc(-c2cc(C(=O)NC[C@H]3CC[C@H](CNC(=O)OC(C)(C)C)CC3)c3ccccc3n2)cc1 [Example 203, tert-Butyl {[trans-4-({[(2-{4-[2-(dimethylamino)ethoxy]phenyl}quinolin-4-yl)carbonyl]amino}methyl)cyclohexyl]methyl}carbamate]"
1100,370,"CC(C)(C)OC(=O)NC[C@H]1CC[C@H](CNC(=O)c2cc(-c3ccc(N4CCC[C@H]4C(N)=O)nc3)nc3ccccc23)CC1 [Example 163, tert-Butyl{[trans-4-({[(2-{6-[(2S)-2-carbamoylpyrrolidin-1-yl]pyridin-3-yl}-quinolin-4-yl)-carbonyl]amino}methyl)cyclohexyl]methyl}-carbamate]"
1370,650,"CC[C@H](Nc1ccc(-c2cc(C(=O)NC[C@H]3CC[C@H](CNC(=O)OC(C)(C)C)CC3)c3ccccc3n2)cn1)C(N)=O [Example 169, tert-Butyl({trans-4-[({[2-(6-{[(1S)-1-carbamoylpropyl]amino}pyridin-3-yl)-quinolin-4-yl]-carbonyl}amino)methyl]cyclohexyl}methyl)carbamate]"
350,130,"CC(C)(C)OC(=O)NC[C@H]1CC[C@H](CNC(=O)c2cc(-c3ccc(NCCCO)nc3)nc3ccccc23)CC1 [Example 150, tert-Butyl{[trans-4-({[(2-{6-[(3-hydroxypropyl)amino]pyridin-3-yl}quinolin-4-yl)carbonyl]amino}-methyl)cyclohexyl]methyl}carbamate]"
1310,140,"CN(C)CC(O)CC1CCN(c2cc(C(=O)NC[C@H]3CC[C@H](CNC(=O)OC(C)(C)C)CC3)c3ccccc3n2)CC1 (stereo partly drawn) [Example 205, tert-Butyl {[trans-4-({[(2-{4-[3-(dimethylamino)-2-hydroxypropyl]piperidin-1-yl}quinolin-4-yl)carbonyl]amino}methyl)cyclohexyl]methyl}carbamate]"
1250,150,CC(C)(C)OC(=O)NC[C@H]1CC[C@H](CNC(=O)c2cc(N3CCC(CCNCCF)CC3)nc3ccccc23)CC1 [Example 244]
1100,410,"CC(C)(C)OC(=O)NC[C@H]1CC[C@H](CNC(=O)c2cc(-c3ccc(NCCOCCO)nc3)nc3ccccc23)CC1 [Example 155, tert-Butyl({trans-4-[({[2-(6-{[2-(2-hydroxyethoxy)ethyl]amino}pyridin-3-yl)quinolin-4-yl]-carbonyl}amino)-methyl]cyclohexyl}methyl)carbamate]"
1020,100,"CC(C)(C)OC(=O)NC[C@H]1CC[C@H](CNC(=O)c2cc(N3CCC(CCN4CC(O)C4)CC3)nc3ccccc23)CC1 [Example 233, tert-Butyl {[trans-4-({[(2-{4-[2-(3-hydroxyazetidin-1-yl)ethyl]piperidin-1-yl}quinolin-4-yl)carbonyl]amino}methyl)cyclohexyl]methyl}carbamate]"
1290,140,"CN(CCO)CCC1CCN(c2cc(C(=O)NC[C@H]3CC[C@H](CNC(=O)OC(C)(C)C)CC3)c3ccccc3n2)CC1 [Example 232, tert-Butyl({trans-4-[({[2-(4-{2-[(2-hydroxyethyl)(methyl)-amino]ethyl}piperidin-1-yl)quinolin-4-yl]carbonyl}amino)-methyl]cyclohexyl}-methyl)carbamate]"
780,110,"CC(C)(C)OC(=O)NC[C@H]1CC[C@H](CNC(=O)c2cc(N3CCC(CC(O)CN4CCCC4)CC3)nc3ccccc23)CC1 (single isomer, unassigned) [Example 209, (S) or (R) tert-Butyl [(trans-4-{[({2-[4-(2-hydroxy-3-pyrrolidin-1-ylpropyl)-piperidin-1-yl]quinolin-4-yl}carbonyl)amino]-methyl}cyclohexyl)methyl]carbamate]"
